The values below come from paper PMC11508974, “Computational Approach to Identifying New Chemical Entities as Elastase Inhibitors with Potential Antiaging Effects” (International Journal of Molecular Sciences, 2024).

In the test the target is T1, porcine pancreatic elastase (PPE) (Sus scrofa, UniProt P00772).
T1 construct: gene CELA1
Nature of the test: Chromogenic elastase inhibition assay with SANA substrate, p-nitroaniline release. It counts as biochemical.

T1 sequence (P00772 27-266): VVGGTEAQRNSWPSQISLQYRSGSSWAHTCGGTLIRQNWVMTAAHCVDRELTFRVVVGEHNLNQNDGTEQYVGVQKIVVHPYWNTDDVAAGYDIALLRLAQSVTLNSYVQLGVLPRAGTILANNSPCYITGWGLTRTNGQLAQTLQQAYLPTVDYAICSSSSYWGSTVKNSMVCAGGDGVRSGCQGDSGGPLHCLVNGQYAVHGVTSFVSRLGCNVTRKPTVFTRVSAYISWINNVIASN

The term IC50 denotes the concentration needed to halve the response being measured. Higher therefore signals lower potency. `Cc1cc(C)cc(Cn2c(SCC(=O)Nc3ccc(C)cc3Cl)nc3ccccc32)c1` [compound 2, N-(2-chloro-4-methylphenyl)-2-[[1-[(3,5-dimethylphenyl)methyl]-1H-benzimidazol-2-yl]thio]acetamide] came in with an IC50 of 60.4 ± 1.98 µM.
